The nature of the series: Stability with acid or base in organic solvent. The following applies: 1,2-dichloroethane, 40 °C, 3 h. In kind it is physicochemical. From the text: To examine the stability of Stomidazolone and identify any degraded products (if unstable), we treated Stomidazolone with an acid or a base. […] The major degraded product under basic conditions was isolated with gel-permeation chromatography (GPC) in 48% yield. The product, which we designated as lzx103 (compound 4), was identified as (phenylsulfonyl)benzimidamide[39] through ^1H and ^13C NMR analyses (Supplementary Fig. 3a, Supplementary Data 1). […]
show any biological activity on stomatal development (see Revised Fig. S3), thus ruling out the possibility that the inhibition of stomatal differentiation is attributable to the degradation product rather than Stomidzaolone itself. The yield of Izx103 was determined through isolation. Please see the schematics below (presented as Fig. S3). These new findings are described in detail in our Revised Results section (see Page 6 "Stability of […]
with CH COOH (3.1 equiv.) HN […]
with NaOH (3.1 equiv.) NH2 […]
The authors should also provide a better 13C NMR spectrum of the compound in the SI, the current copy features rather weak signal intensities and some signals can only be suspected.
We re-synthesized Stomidazolone and substituted with a better 13C NMR spectrum of Stomidazolone in our revised Document S1. Thank you.
Finally, it should be mentioned in the MS right from the beginning that the compound is a racemic mixture (see also point 2 for this).
We sincerely appreciate Reviewer 2 for raising an important point. Please see our […]
observed effects are caused by Stomidazolone-mediated modulation of MUTE function. The authors use SIM1 during the plant assays which is however not an optimal control as it is not […]
in the biochemical assays, while active compounds are in contrast active in both assay types.
An almost optimal control for these phenotypic and biochemical assays in my view are the two enantiomers of Stomidazolone. […]

Experimental findings from article PMC11500415, “Chemical inhibition of stomatal differentiation by perturbation of the master-regulatory bHLH heterodimer via an ACT-Like domain” (Nature Communications, 2024) are described below.

Consider `O=C1C(c2ccccc2)=NC(NS(=O)(=O)c2ccccc2)(c2ccccc2)N1S(=O)(=O)c1ccccc1` (stereo not drawn) [Stomidazolone], for which the “stability under acidic conditions” value (3 equiv. of acetic acid) was “stable”. For the same compound, the “stability under basic conditions” value (3 equiv. of sodium hydroxide) is recorded as “completely degraded”. Besides, under “CH3COOH (3.1 equiv.)”, the “recovered by 1H NMR analysis” value came out at 93%.
